Data: ChEMBL document CHEMBL3885861, “Open TG-GATES”

Organism: Rattus norvegicus
Test: Open TG-GATES - Regimen: Single
Type: toxicity, organism-based, Sprague-Dawley
Parameters: regimen Single, gender Male, age 6 weeks
Conditions: in vivo, iv, route intravenous injection; for KIDNEY_L / KIDNEY_R / KIDNEY_TOTAL: tissue Kidney; for LIVER: tissue Liver; for ALP / ALT / BUN / CRE / DBIL / GLC / IP / K / LDH / PL / RALB / TBIL / TC / TG / TP / gamma-GTP / AST / Na: tissue Plasma
[1] = 30 mg/kg, 3 h, tissue Blood, dose level Middle
[2] = 30 mg/kg, 3 h, dose level Middle
[3] = 30 mg/kg, 6 h, tissue Blood, dose level Middle
[4] = 30 mg/kg, 6 h, dose level Middle
[5] = 30 mg/kg, 9 h, dose level Middle
[6] = 30 mg/kg, 9 h, tissue Blood, dose level Middle
[7] = 30 mg/kg, 24 h, dose level Middle
[8] = 30 mg/kg, 24 h, tissue Blood, dose level Middle
[9] = 100 mg/kg, 3 h, tissue Blood, dose level High
[10] = 100 mg/kg, 3 h, dose level High
[11] = 100 mg/kg, 6 h, dose level High
[12] = 100 mg/kg, 6 h, tissue Blood, dose level High
[13] = 100 mg/kg, 9 h, dose level High
[14] = 100 mg/kg, 9 h, tissue Blood, dose level High
[15] = 100 mg/kg, 24 h, dose level High
[16] = 100 mg/kg, 24 h, tissue Blood, dose level High

CARBOPLATIN
APTT [1]: 23.3 s
Bas [1]: 0%
Eos [1]: 1%
Fbg [1]: 273.2 mg/dL
Hb [1]: 13 g/dL
Ht [1]: 40.3%
Lym [1]: 81.8%
MCV [1]: 63.6 fL
Mono [1]: 2.4%
PT [1]: 15.6 s
Plat [1]: 123.8 x10_4/uL
RBC [1]: 633.4 x10_4/ul
Ret [1]: 5.6%
WBC [1]: 77.3 x10_2/uL
KIDNEY_L [2]: 0.9 g
KIDNEY_R [2]: 0.9 g
KIDNEY_TOTAL [2]: 1.9 g
LIVER [2]: 9.5 g
ALP [2]: 1595 IU/L
ALT [2]: 41.4 IU/L
BUN [2]: 11 mg/dL
CRE [2]: 0.2 mg/dL
DBIL [2]: 0 mg/dL
GLC [2]: 175 mg/dL
IP [2]: 8.6 mg/dL
K [2]: 4 meq/L
LDH [2]: 183.4 IU/L
PL [2]: 126.6 mg/dL
RALB [2]: 3 g/dL
TBIL [2]: 0.014 mg/dL
TC [2]: 67 mg/dL
TG [2]: 75 mg/dL
TP [2]: 5.4 g/dL
gamma-GTP [2]: 1.2 IU/L
APTT [3]: 22.6 s
Bas [3]: 0%
Eos [3]: 0.8%
Fbg [3]: 273.4 mg/dL
Hb [3]: 12.8 g/dL
Ht [3]: 39.7%
Lym [3]: 77.4%
MCHC [3]: 32.2%
MCV [3]: 63.8 fL
Mono [3]: 4%
Neu [3]: 16.6%
PT [3]: 15.9 s
Plat [3]: 120 x10_4/uL
RBC [3]: 623.2 x10_4/ul
Ret [3]: 6.3%
WBC [3]: 102.3 x10_2/uL
KIDNEY_L [4]: 0.9 g
KIDNEY_R [4]: 0.9 g
KIDNEY_TOTAL [4]: 1.8 g
LIVER [4]: 8.7 g
ALP [4]: 1276.8 IU/L
ALT [4]: 42 IU/L
AST [4]: 77.8 IU/L
CRE [4]: 0.2 mg/dL
DBIL [4]: 0 mg/dL
GLC [4]: 174.6 mg/dL
IP [4]: 9.6 mg/dL
K [4]: 4.4 meq/L
Na [4]: 139.4 meq/L
PL [4]: 126 mg/dL
RALB [4]: 2.9 g/dL
TBIL [4]: 0.012 mg/dL
TC [4]: 73.4 mg/dL
TG [4]: 68.6 mg/dL
TP [4]: 5.3 g/dL
gamma-GTP [4]: 1 IU/L
TERMINAL_BW [5]: 197.2 g
APTT [6]: 24.3 s
Bas [6]: 0%
Eos [6]: 0.6%
Fbg [6]: 280.2 mg/dL
Hb [6]: 12.8 g/dL
Ht [6]: 39.6%
Lym [6]: 72.2%
MCHC [6]: 32.4%
MCV [6]: 62 fL
Mono [6]: 2.4%
Neu [6]: 24%
PT [6]: 15.9 s
Plat [6]: 119 x10_4/uL
RBC [6]: 638.6 x10_4/ul
Ret [6]: 5.9%
WBC [6]: 68.8 x10_2/uL
KIDNEY_L [5]: 0.9 g
KIDNEY_R [5]: 1 g
KIDNEY_TOTAL [5]: 1.9 g
LIVER [5]: 7.9 g
ALP [5]: 1295.4 IU/L
ALT [5]: 38.8 IU/L
AST [5]: 81 IU/L
BUN [5]: 10 mg/dL
CRE [5]: 0.1 mg/dL
DBIL [5]: 0 mg/dL
GLC [5]: 173.6 mg/dL
IP [5]: 9.7 mg/dL
K [5]: 4.3 meq/L
LDH [5]: 182.2 IU/L
Na [5]: 139.6 meq/L
PL [5]: 118.8 mg/dL
RALB [5]: 2.9 g/dL
TBIL [5]: 0.014 mg/dL
TC [5]: 63 mg/dL
TG [5]: 55 mg/dL
TP [5]: 5.4 g/dL
gamma-GTP [5]: 1.2 IU/L
TERMINAL_BW [7]: 208.3 g
APTT [8]: 23 s
Bas [8]: 0%
Eos [8]: 0.8%
Fbg [8]: 295.6 mg/dL
Hb [8]: 12.9 g/dL
Ht [8]: 39.9%
Lym [8]: 88.4%
MCHC [8]: 32.2%
Mono [8]: 3.4%
Neu [8]: 6.6%
PT [8]: 16.1 s
Plat [8]: 125 x10_4/uL
RBC [8]: 639.8 x10_4/ul
Ret [8]: 4.5%
WBC [8]: 72.2 x10_2/uL
KIDNEY_L [7]: 0.9 g
KIDNEY_R [7]: 1 g
KIDNEY_TOTAL [7]: 1.9 g
LIVER [7]: 9.3 g
ALP [7]: 1504.2 IU/L
ALT [7]: 44.8 IU/L
AST [7]: 72.8 IU/L
CRE [7]: 0.2 mg/dL
DBIL [7]: 0.002 mg/dL
GLC [7]: 179.6 mg/dL
IP [7]: 8.1 mg/dL
K [7]: 4.3 meq/L
LDH [7]: 211.2 IU/L
Na [7]: 139.8 meq/L
PL [7]: 126.6 mg/dL
RALB [7]: 3 g/dL
TBIL [7]: 0.02 mg/dL
TC [7]: 70.4 mg/dL
TG [7]: 60.4 mg/dL
TP [7]: 5.5 g/dL
gamma-GTP [7]: 1.2 IU/L
APTT [9]: 22.8 s
Bas [9]: 0%
Eos [9]: 0.6%
Fbg [9]: 275 mg/dL
MCHC [9]: 32.4%
MCV [9]: 64.2 fL
Mono [9]: 2.8%
Neu [9]: 17.2%
PT [9]: 15.7 s
Plat [9]: 123.5 x10_4/uL
RBC [9]: 630.8 x10_4/ul
Ret [9]: 6.4%
WBC [9]: 81.4 x10_2/uL
KIDNEY_L [10]: 0.9 g
KIDNEY_R [10]: 0.9 g
KIDNEY_TOTAL [10]: 1.9 g
LIVER [10]: 9.2 g
ALP [10]: 1630.8 IU/L
ALT [10]: 45 IU/L
BUN [10]: 12 mg/dL
CRE [10]: 0.2 mg/dL
DBIL [10]: 0 mg/dL
GLC [10]: 170.6 mg/dL
IP [10]: 9.1 mg/dL
K [10]: 4.2 meq/L
LDH [10]: 173.8 IU/L
PL [10]: 129 mg/dL
RALB [10]: 3 g/dL
TBIL [10]: 0.014 mg/dL
TC [10]: 69.8 mg/dL
TG [10]: 70.8 mg/dL
TP [10]: 5.3 g/dL
gamma-GTP [10]: 1.2 IU/L
TERMINAL_BW [11]: 200.2 g
APTT [12]: 24.4 s
Bas [12]: 0%
Eos [12]: 0.8%
Fbg [12]: 286.8 mg/dL
Ht [12]: 41.1%
Lym [12]: 76%
MCH [12]: 20 pg
MCHC [12]: 32.2%
MCV [12]: 62.2 fL
Mono [12]: 6.4%
Plat [12]: 125.8 x10_4/uL
RBC [12]: 663.8 x10_4/ul
Ret [12]: 5.2%
WBC [12]: 91 x10_2/uL
KIDNEY_L [11]: 1 g
KIDNEY_R [11]: 1 g
KIDNEY_TOTAL [11]: 1.9 g
LIVER [11]: 8.2 g
ALP [11]: 1531.2 IU/L
ALT [11]: 40.4 IU/L
AST [11]: 84.4 IU/L
BUN [11]: 10.8 mg/dL
CRE [11]: 0.2 mg/dL
DBIL [11]: 0 mg/dL
GLC [11]: 176.6 mg/dL
IP [11]: 9.5 mg/dL
K [11]: 4.2 meq/L
LDH [11]: 177.8 IU/L
Na [11]: 140 meq/L
PL [11]: 109.6 mg/dL
RALB [11]: 2.9 g/dL
TBIL [11]: 0.02 mg/dL
TC [11]: 61.8 mg/dL
TG [11]: 37.4 mg/dL
TP [11]: 5.3 g/dL
gamma-GTP [11]: 1.2 IU/L
TERMINAL_BW [13]: 204.6 g
APTT [14]: 24.9 s
Bas [14]: 0%
Eos [14]: 0.8%
Fbg [14]: 299.4 mg/dL
Ht [14]: 40.5%
Lym [14]: 73.8%
MCHC [14]: 32.4%
MCV [14]: 62.8 fL
Mono [14]: 3.4%
Neu [14]: 21.2%
PT [14]: 15.9 s
Plat [14]: 136.6 x10_4/uL
RBC [14]: 645.2 x10_4/ul
Ret [14]: 6.1%
WBC [14]: 69 x10_2/uL
KIDNEY_L [13]: 0.9 g
KIDNEY_R [13]: 1 g
KIDNEY_TOTAL [13]: 1.9 g
LIVER [13]: 8.4 g
ALP [13]: 1146.6 IU/L
ALT [13]: 34.4 IU/L
AST [13]: 72.8 IU/L
CRE [13]: 0.2 mg/dL
DBIL [13]: 0 mg/dL
GLC [13]: 174.8 mg/dL
IP [13]: 9.9 mg/dL
K [13]: 4.5 meq/L
LDH [13]: 172.4 IU/L
Na [13]: 139.4 meq/L
RALB [13]: 2.9 g/dL
TBIL [13]: 0.022 mg/dL
TC [13]: 69.2 mg/dL
TG [13]: 54.4 mg/dL
TP [13]: 5.2 g/dL
gamma-GTP [13]: 1.6 IU/L
TERMINAL_BW [15]: 203.7 g
APTT [16]: 23.6 s
Bas [16]: 0%
Eos [16]: 0.2%
Fbg [16]: 306.2 mg/dL
Hb [16]: 12.9 g/dL
Ht [16]: 40.2%
Lym [16]: 82.6%
MCHC [16]: 32.2%
Mono [16]: 4%
Neu [16]: 12%
PT [16]: 16.2 s
Plat [16]: 123.1 x10_4/uL
RBC [16]: 641.4 x10_4/ul
Ret [16]: 2.7%
WBC [16]: 69.6 x10_2/uL
KIDNEY_L [15]: 0.9 g
KIDNEY_R [15]: 1 g
KIDNEY_TOTAL [15]: 1.9 g
LIVER [15]: 8.8 g
ALP [15]: 1486.6 IU/L
ALT [15]: 41.2 IU/L
AST [15]: 76.8 IU/L
CRE [15]: 0.2 mg/dL
DBIL [15]: 0.002 mg/dL
GLC [15]: 179.2 mg/dL
IP [15]: 8.4 mg/dL
K [15]: 4.3 meq/L
LDH [15]: 176.8 IU/L
PL [15]: 135.6 mg/dL
RALB [15]: 3.1 g/dL
TBIL [15]: 0.022 mg/dL
TC [15]: 78.6 mg/dL
TG [15]: 51.2 mg/dL
TP [15]: 5.6 g/dL
gamma-GTP [15]: 1.2 IU/L
